Measurements as given in US20110065663A1, “ANTI-CANCER COMBINATION THERAPY” (Katholieke Universiteit Leuven, K.U. Leuven R&D, priority 2008, published 2011).
Where two headings read alike, the source gives them in different places.

Assays:
E. coli TP = target: T1, E. coli TP (Escherichia coli, UniProt P07650); assay: Enzyme activity assay with recombinant E. coli TP (positive control); type: biochemical; details: 0.025 U TP, 200 μM substrate
T1 construct: purchased Sigma
Procedure: (§1) The TP activity of M. hyorhinis and the conversion of dThd, FdUrd, 5′DFUR and TFT to thymine, 5FU, 5FU or TF-thymine respectively were measured by high-pressure liquid chromatography (HPLC) analysis. MCF-7 and MCF-7/HYOR cells were seeded at a density of 20,000 cells/cm^2 in DMEM with 10% FBS. Four days later, the medium was collected and cleared by centrifugation at 1,400 rpm. For some experiments, the medium of MCF-7/HYOR cells was filtered using a 0.1 μm micro filter (Acrodisc syringe filter, PALL Corporation, East Hills, N.Y.) to remove the mycoplasmas from the medium. 600 μl of the medium was incubated with 200 μM of substrate (dThd, 5′DFUR, TFT or FdUrd) at 37° C. in the presence or absence of 10 μM TPi. At different time points (i.e. 0, 15, 30, 60, 120 minutes and 16 hours), 100 μl aliquots were withdrawn, transferred to Eppendorf tubes and heated at 95° C. for 3 min. Next, the samples were rapidly cooled on ice, exposed for 20 min to 200 μl ice-cold methanol and cleared by centrifugation at 15,000 rpm for 15 minutes. As a positive control, an enzyme activity assay with E. coli TP (Sigma) was performed. For this reaction, 0.025 U of TP were incubated with 200 μM of substrate in TP-buffer (10 mM Tris-HCl, pH 7.6, 1 mM EDTA, 2 mM potassium phosphate and 150 mM NaCl) in a total volume of 600 μl. Aliquots of 100 μl were withdrawn from the reaction mixture at several time points and treated as described above. The nucleosides were separated from their nucleobases on a reversed-phase RP-8 column (Merck, Darmstadt, Germany) and quantified by HPLC analysis (Aliance 2690, Waters, Milford, Mass.). The separation was performed by a linear gradient from 100% buffer B (50 mM NaH2PO4 and 5 mM heptane sulfonic acid, pH 3.2), to 20% buffer B and 80% acetonitrile. Retention times of thymine and thymidine were respectively 5.1 and 10.8 minutes. UV-based detection of all nucleosides was performed at 267 nm.

[1] = Conversion of nucleosides in the medium of uninfected MCF-7 cells; type: biochemical, human; details: even after 24 hours of incubation; data not shown
Procedure: as §1, with “At different time points (i.e. 0, 15, 30, 60, 120 minutes and 16 hours), 100 μl aliquots were withdrawn, transferred to Eppendorf tubes and heated at 95° C. for 3 min.” left out, “Retention times of thymine and thymidine were respectively 5.1 and 10.8 minutes.” left out

MCF-7 cells = assay: Tumor cell proliferation assay, uninfected MCF-7 cells; type: cell-based, human; details: Homo sapiens, uninfected MCF-7
Procedure: MCF-7 and MCF-7/HYOR cells were seeded in 48-well plates at 10,000 cells/cm^2. […] of the test compounds (5FU, 5′DFUR, CIdUrd, BrdUrd, IdUrd and TFT) with or without 10 μM TPi were added. The cells were incubated for another 4 days, trypsinized and counted by a Coulter counter (Analis, Suarlée, Belgium). In some experiments, the antibiotic plasmocin was added one or three days before addition of the test compounds.

M. hyorhinis TP = assay: TP activity in the medium of MCF-7/HYOR cell cultures (HPLC, conversion of nucleoside to free base); type: biochemical, Mycoplasma hyorhinis; details: for Percent conversion of nucleoside to the free pyrimidine base in MCF-7/HYOR medium: 37° C.
Procedure: as §1, with “Retention times of thymine and thymidine were respectively 5.1 and 10.8 minutes.” left out

MCF-7/HYOR cells [2] = assay: Tumor cell proliferation assay, M. hyorhinis-infected MCF-7 cells; type: cell-based, human; details: for IC50: Homo sapiens
Procedure: Mycoplasma hyorhinis (ATCC 17981) was obtained from the American Type Culture Collection (ATCC, Manassas, Va.). The freeze-dried bacteria were reconstituted by adding 1 ml of DMEM. […] The co-culture of MCF-7 cells and M. hyorhinis was maintained under the same conditions as the uninfected MCF-7 cells. […] The cells were incubated for another 4 days, trypsinized and counted by a Coulter counter (Analis, Suarlée, Belgium).

M. hyorhinis = assay: Staining of DNA with Hoechst 33342, growth of M. hyorhinis in MCF-7 cell cultures; type: cell-based, Mycoplasma hyorhinis; details: 10 μM; 3 days
Procedure: 10,000 cells/cm^2 (MCF-7 and MCF-7/HYOR) were seeded in 8-well chamber slides (Nunc, Roskilde, Denmark). After 24 hours, 10 μM TPi was added and the cells were incubated for an additional 72 hours. Next, the cells were fixed with Carnoy's fixative (1 part glacial acetic acid to 3 parts absolute methanol) for 10 minutes, air-dried and exposed to the DNA-binding dye Hoechst 33342 (Sigma) at a concentration of 0.5 μg/ml for 15 min at room temperature. Next, the cells were washed twice with de-ionised water and covered with mounting medium (‘glycergel’, Dako, Glostrup, Denmark) and a cover slip. Fluorescence was visualised with a Leica TCS SP5 confocal microscope (Leica, Wetzlar, Germany).

MCF-7/HYOR cells [3] = assay: Nucleotide incorporation assay, MCF-7/HYOR compared with MCF-7 cells; type: cell-based, human; details: 1 μCi radiolabeled compound; FIG. 4
Procedure: MCF-7 and MCF-7/HYOR cells were seeded at 10,000 cells/cm. After 48 hours, cells were treated with 1 μCi of ^3H-labeled nucleoside with or without 10 μM TPi. 16 h later, the medium was removed and the cells were washed twice with PBS. Next, the cells were trypsinized, transferred to Eppendorf tubes and centrifuged for 10 minutes at 1,400 rpm. The pellet was resuspended in 1 ml absolute ice-cold methanol and kept on ice for 20 minutes. After centrifugation for 20 minutes at 13,000 rpm the pellet was washed twice with methanol, resuspended in methanol and transferred to scintillation vials containing 9 ml of Ready safe liquid scintillation reagent (‘Hisafe 3’, Perkin Elmer, Waltham, Mass.). The radioactivity was measured by a Liquid scintillation analyzer (2300 TR, Packard, Canberra, Australia).

MCF-7/HYOR cell cultures = assay: Nucleoside metabolism experiments, distribution of drug-derived radiolabel in MCF-7/HYOR cell cultures; type: cell-based, human; details: MCF-7/HYOR
Procedure: Next, the cells were trypsinized, transferred to Eppendorf tubes and centrifuged for 10 minutes at 1,400 rpm. The pellet was resuspended in 1 ml absolute ice-cold methanol and kept on ice for 20 minutes. After centrifugation for 20 minutes at 13,000 rpm the pellet was washed twice with methanol, resuspended in methanol and transferred to scintillation vials containing 9 ml of Ready safe liquid scintillation reagent (‘Hisafe 3’, Perkin Elmer, Waltham, Mass.). The radioactivity was measured by a Liquid scintillation analyzer (2300 TR, Packard, Canberra, Australia). […] Next, the cells were incubated in 0.5 ml absolute ice-cold methanol and kept on ice for 20 minutes. After centrifugation for 20 minutes at 13,000 rpm, the supernatant was subjected to HPLC analysis. […] The amount of compound incorporated into nucleic acids was measured as described above.

T1 sequence (P07650 whole entry): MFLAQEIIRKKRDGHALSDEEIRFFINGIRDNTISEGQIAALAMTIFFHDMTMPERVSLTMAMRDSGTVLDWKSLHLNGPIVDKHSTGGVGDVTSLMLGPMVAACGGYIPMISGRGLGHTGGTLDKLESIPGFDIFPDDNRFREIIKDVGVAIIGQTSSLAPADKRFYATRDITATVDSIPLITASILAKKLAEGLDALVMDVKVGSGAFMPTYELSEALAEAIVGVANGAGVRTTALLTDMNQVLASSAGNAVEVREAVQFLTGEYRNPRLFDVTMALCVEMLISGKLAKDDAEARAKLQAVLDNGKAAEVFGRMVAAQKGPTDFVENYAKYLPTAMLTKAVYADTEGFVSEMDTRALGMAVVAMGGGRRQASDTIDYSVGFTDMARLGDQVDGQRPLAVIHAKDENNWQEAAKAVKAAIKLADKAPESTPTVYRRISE

C[C@H]1O[C@@H](n2cc(F)c(=O)[nH]c2=O)[C@H](O)[C@@H]1O [5′DFUR, 5-fluoro-5′-deoxyuridine]
Percent conversion of nucleoside to the free pyrimidine base, recombinant E. coli TP (E. coli TP; 2 hours): 26% | Percent conversion of nucleoside to the free pyrimidine base, recombinant E. coli TP (E. coli TP; 16 hours): 64% | Conversion in the medium of uninfected MCF-7 cells [1]: no conversion | IC50 (MCF-7 cells; MCF7, 96 h, no TPi, 4 days, read-out: IC50 MCF-7 As such): > 100 µM | IC50 (MCF-7 cells; MCF7, with 10 μM TPi, read-out: IC50 MCF-7 +TPi (10 μM)): > 100 µM | Percent conversion of nucleoside to the free pyrimidine base in MCF-7/HYOR medium (M. hyorhinis TP; 2 hours, 200 μM substrate): 5% | Percent conversion of nucleoside to the free pyrimidine base in MCF-7/HYOR medium (M. hyorhinis TP; 16 hours, 200 μM substrate): 22% | IC50 (MCF-7/HYOR cells [2]; MCF7, read-out: IC50 MCF-7/HYOR +TPi (10 μM)): > 100 µM | IC50 (MCF-7/HYOR cells [2]; MCF7, read-out: IC50 MCF-7/HYOR As such): 3.5 ± 0.53 µM | IC50 (MCF-7/HYOR cells [2]; MCF7, plasmocin 25 μg/ml, 1 day pretreatment, read-out: IC50 MCF-7/HYOR +plasmocin (25 μg/ml) 1 day prior to addition of test compounds): > 100 µM | IC50 (MCF-7/HYOR cells [2]; MCF7, plasmocin 25 μg/ml, 3 days pretreatment, read-out: IC50 MCF-7/HYOR +plasmocin (25 μg/ml) 3 days prior to addition of test compounds): > 100 µM | Ratio (1)/(2) MCF-7/HYOR (MCF-7/HYOR cells [2]; IC50 in the absence of TPi to IC50 in the presence of TPi): <0.035

Cl.N=C1CCCN1Cc1[nH]c(=O)[nH]c(=O)c1Cl [TPi, 5-chloro-6-(1 [2-iminopyrrolidinyl]methyl)uracil hydrochloride]
Effect on the growth of M. hyorhinis in MCF-7 cell cultures (M. hyorhinis): not inhibitory | Inhibition of conversion of dThd, TFT, FdUrd and 5′DFUR to their free bases in MCF-7/HYOR culture medium (M. hyorhinis TP; 10 μM TPi, 200 μM substrate): completely inhibited

Cc1cn([C@H]2C[C@H](O)[C@@H](CO)O2)c(=O)[nH]c1=O [dThd, thymidine]
Percent conversion of nucleoside to the free pyrimidine base, recombinant E. coli TP (E. coli TP; 2 hours): 82% | Percent conversion of nucleoside to the free pyrimidine base, recombinant E. coli TP (E. coli TP; 16 hours): 93% | Conversion in the medium of uninfected MCF-7 cells [1]: no conversion | Reduction of incorporation into nucleic acids in infected MCF-7/HYOR cells in comparison with uninfected MCF-7 cells (MCF-7/HYOR cells [3]): 85 fold | Percent conversion of nucleoside to the free pyrimidine base in MCF-7/HYOR medium (M. hyorhinis TP; 16 hours, 200 μM substrate): 97% | Thymidine degraded into thymine (M. hyorhinis TP; within 60 minutes, FIG. 3): almost all | % of drug-derived radiolabel, In medium, Base (MCF-7/HYOR cell cultures; 1 μCi, 16 h): 74.6% | % of drug-derived radiolabel, In medium, Nucleoside (MCF-7/HYOR cell cultures; 1 μCi, 16 h): 11.5% | % of drug-derived radiolabel, In the cytosol of the cells, 5′-diphosphate (MCF-7/HYOR cell cultures; 1 μCi, 16 h): 0.3% | % of drug-derived radiolabel, In the cytosol of the cells, 5′-monophosphate (MCF-7/HYOR cell cultures; 1 μCi, 16 h): 0.6% | % of drug-derived radiolabel, In the cytosol of the cells, 5′-triphosphate (MCF-7/HYOR cell cultures; 1 μCi, 16 h): 0.2% | % of drug-derived radiolabel, In the cytosol of the cells, Nucleoside/nucleobase (MCF-7/HYOR cell cultures; 1 μCi, 16 h): 7.5% | % of drug-derived radiolabel, Incorporatio into DNA/RNA (MCF-7/HYOR cell cultures; 1 μCi, 16 h): 5.3% | Share incorporated into the nucleic acids in the presence of TPi (MCF-7/HYOR cell cultures; in the presence of TPi): almost all
